Test results published in patent US12552732B2, “Cyclopropanated sandalwood type compounds” (Symrise AG, priority 2020, dated 2026).

Key:
[1] = Odour detection threshold (ODT), olfactometer TO8, expert panel, DIN EN 13725; details: for ODT (odour detection threshold): olfactometer TO8, panel of at least four experts
Description: The odour detection threshold is defined as the lowest concentration of a certain odorous compound (gaseous and sensorially active substance) which is perceivable and thus which can be distinguished with certainty from a blank reference under standard conditions. Generally, lower ODT values are preferred as a lower amount of the corresponding fragrance compound is required in order to a achieve an intense odour impressions and thus overall lower amounts can be used for perfuming. However, as the threshold depends on various factors such as concentration, solubility, partition coefficient between air and the olfactory active substance, vapor pressure and the like, predictions referring to the ODT of a substance, i.e. a fragrance material are difficult to make. The ODT was measured using an olfactometer TO8 and a panel of at least four experts according to DIN standard EN 13725.

[2] = Chemical stability in citric acid-based cleaner pH 2 (SPME GC-MS); format: physicochemical; details: for acid-stability compared with Javanol: 0.3% in citric acid-based cleaner pH 2, 14 days, 6, 22, 40 and 50 °C, versus fresh sample
Protocol: In order to analyse the stability of the inventive compounds, different samples each containing 0.3% of either compound 3a, compound 3b or Javanol® (Givaudan), respectively, in a citric acid-based cleaner having a pH of 2 were analysed, i.e., the stability test was carried out using a representative acidic cleaner (pH=2) in which the corresponding fragrance compounds were incorporated in an amount of 0.3% relative to the acidic cleaner.
The stability was analysed via solid-phase microextraction (SPME) and coupled gas chromatography-mass spectrometry (GC-MS) by using a combination of polydimethylsiloxane and divinylbenzene as SPME fibre coating (PDMS/DVB fibre) and a polydimethylsiloxane-based DB-1 column for gas chromatography (100% polydimethylsiloxane) for each sample containing one of the fragrance compounds as indicated above. The stability was tested for various samples after 14 days of acidic treatment at different storage temperatures (6° C., 22° C., 40° C. and 50° C.) in comparison to a freshly prepared sample as reference (see FIGURE).

Structure (SMILES) | ODT (odour detection threshold) [1] | acid-stability compared with Javanol [2] | acid-stability at 22 °C ([2]; 0.3% in citric acid-based cleaner pH 2, 14 days, 22 °C) | factor by which threshold value is lower than Javanol ([1]; ODT compared with Javanol (Givaudan)) | decomposition at 50 °C ([2]; 0.3% in citric acid-based cleaner pH 2, 14 days, 50 °C) | decomposition at moderate temperatures ([2]; 0.3% in citric acid-based cleaner pH 2, 14 days, moderate temperatures) | chemical stability under acidic conditions ([2]; acidic conditions, general statement)
CCC(CO)C1CC1C1CC2CC2(C)C1(C)C (stereo not shown) [Compound 3a, 2-[2-(1,2,2-trimethyl-3-bicyclo[3.1.0]hexanyl)cyclopropyl]butan-1-ol] | 0.000244 ppm (v/v) | better acid-stability over the whole temperature range | Best stabilities | – | – | – | –
CC(CO)C1CC1C1CC2CC2(C)C1(C)C (stereo not shown) [Compound 3b, 2-[2-(1,2,2-trimethyl-3-bicyclo[3.1.0]hexanyl)cyclo-propyl]propan-1-ol] | 0.0000165 ppm (v/v) | better acid-stability over the whole temperature range | – | about 6.5 | – | – | –
CC1(CO)CC1CC1CC2CC2(C)C1(C)C (stereo not shown) [Javanol®, [1-methyl-2-[(1,2,2-trimethyl-3-bicyclo[3.1.0]hexanyl)methyl]cyclo-propyl]methanol, reference compound] | 0.000104 ppm (v/v) | – | – | – | fully decomposes | seems to decompose quickly even at moderate temperatures | not chemically stable under acidic conditions
